From ChEMBL document CHEMBL1137142, “Structure-activity relationships of a novel series of melanin-concentrating hormone (MCH) receptor antagonists” (Bioorg Med Chem Lett, 2004) come the findings set out here.

Experiment [1] is described as follows: (§1) Inhibitory activity against Melanin-concentrating hormone receptor 1. Details: species or system Homo sapiens.
Experiment [2] deals with T1, Melanin-concentrating hormone receptor 1 (Homo sapiens, UniProt Q99705). In words: Inhibitory activity against Melanin-concentrating hormone receptor 1 at 1 uM.
T1 sequence (Q99705 whole entry): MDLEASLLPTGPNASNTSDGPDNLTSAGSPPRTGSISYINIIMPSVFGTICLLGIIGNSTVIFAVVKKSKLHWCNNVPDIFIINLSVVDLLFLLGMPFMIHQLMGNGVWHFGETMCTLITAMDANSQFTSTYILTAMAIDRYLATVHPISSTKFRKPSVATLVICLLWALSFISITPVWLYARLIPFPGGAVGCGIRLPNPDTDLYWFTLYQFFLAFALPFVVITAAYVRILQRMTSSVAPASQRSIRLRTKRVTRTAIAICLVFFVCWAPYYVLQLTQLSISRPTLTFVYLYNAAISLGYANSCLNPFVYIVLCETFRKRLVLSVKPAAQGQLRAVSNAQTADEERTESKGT
Experiment [3] deals with T2, Alpha-1A adrenergic receptor (Homo sapiens) (UniProt P35348).
T2 sequence (whole entry): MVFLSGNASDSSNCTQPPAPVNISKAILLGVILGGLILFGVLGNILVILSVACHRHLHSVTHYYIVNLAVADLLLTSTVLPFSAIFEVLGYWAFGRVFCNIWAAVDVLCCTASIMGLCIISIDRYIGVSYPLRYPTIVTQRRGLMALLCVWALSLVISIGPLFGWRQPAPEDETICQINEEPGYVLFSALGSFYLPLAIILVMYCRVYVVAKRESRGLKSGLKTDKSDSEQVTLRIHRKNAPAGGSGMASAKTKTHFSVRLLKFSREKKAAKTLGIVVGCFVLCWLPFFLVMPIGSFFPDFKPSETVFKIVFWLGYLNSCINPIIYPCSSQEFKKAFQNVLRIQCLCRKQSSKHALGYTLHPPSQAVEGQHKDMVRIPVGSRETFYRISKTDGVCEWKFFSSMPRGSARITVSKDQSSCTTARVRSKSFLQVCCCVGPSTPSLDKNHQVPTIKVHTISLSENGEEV
In words: Inhibitory activity against human adrenergic alpha-1A receptor at 1 uM concentration.

Experiment [4] addresses T3, 5-hydroxytryptamine receptor 2A (Homo sapiens, UniProt P28223). The experiment can be described thus: Inhibitory activity against human 5-HT2A receptor at 1 uM concentration.
Another experiment is filed under the species Homo sapiens. In words: Selectivity ratio for MCH-1R versus 5-HT2B receptor.
Experiment [5] deals with T4, 5-hydroxytryptamine receptor 2C (Homo sapiens) (UniProt P28335).
T4 sequence (whole entry): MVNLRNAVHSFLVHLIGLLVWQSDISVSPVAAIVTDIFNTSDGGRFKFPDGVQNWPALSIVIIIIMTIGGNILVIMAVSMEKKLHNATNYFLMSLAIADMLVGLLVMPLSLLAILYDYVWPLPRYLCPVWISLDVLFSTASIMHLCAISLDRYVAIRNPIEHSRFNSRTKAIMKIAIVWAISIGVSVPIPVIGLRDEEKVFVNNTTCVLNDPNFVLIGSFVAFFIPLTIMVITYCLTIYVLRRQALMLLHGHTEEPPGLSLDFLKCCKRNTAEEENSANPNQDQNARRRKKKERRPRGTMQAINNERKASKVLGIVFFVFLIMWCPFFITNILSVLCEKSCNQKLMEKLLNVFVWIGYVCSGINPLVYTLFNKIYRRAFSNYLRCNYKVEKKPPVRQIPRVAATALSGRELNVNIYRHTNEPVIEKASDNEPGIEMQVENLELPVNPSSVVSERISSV
In words: Inhibitory activity against human 5-HT2C receptor at 1 uM concentration.

In experiment [6] the target is T1, Melanin-concentrating hormone receptor 1. In words: Tested for MCH-1 induced [Ca2+] release from CHO cells transfected with human MCH-1R. Format: cell-based.
For experiment [7], the target named is D(2) dopamine receptor (Homo sapiens) (UniProt P14416). The experiment can be described thus: Inhibitory activity against human D2 receptor at 1 uM concentration.
Sequence of D(2) dopamine receptor (Homo sapiens) (P14416 whole entry): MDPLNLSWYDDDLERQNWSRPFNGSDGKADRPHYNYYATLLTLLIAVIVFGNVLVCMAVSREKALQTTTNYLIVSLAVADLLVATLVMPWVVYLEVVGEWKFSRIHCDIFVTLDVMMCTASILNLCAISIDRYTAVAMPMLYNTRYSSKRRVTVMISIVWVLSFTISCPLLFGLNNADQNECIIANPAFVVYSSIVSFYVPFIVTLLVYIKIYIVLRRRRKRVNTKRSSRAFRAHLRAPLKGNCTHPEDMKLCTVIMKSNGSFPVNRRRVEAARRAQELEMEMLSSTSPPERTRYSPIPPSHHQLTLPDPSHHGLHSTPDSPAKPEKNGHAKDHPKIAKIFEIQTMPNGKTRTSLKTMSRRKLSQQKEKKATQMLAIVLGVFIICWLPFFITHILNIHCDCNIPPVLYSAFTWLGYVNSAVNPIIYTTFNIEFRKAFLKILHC
The target in experiment [8] is T5, 5-hydroxytryptamine receptor 2B (Homo sapiens, UniProt P41595). In words: Inhibitory activity against human 5-HT2B receptor at 1 uM concentration.
T5 sequence (P41595 whole entry): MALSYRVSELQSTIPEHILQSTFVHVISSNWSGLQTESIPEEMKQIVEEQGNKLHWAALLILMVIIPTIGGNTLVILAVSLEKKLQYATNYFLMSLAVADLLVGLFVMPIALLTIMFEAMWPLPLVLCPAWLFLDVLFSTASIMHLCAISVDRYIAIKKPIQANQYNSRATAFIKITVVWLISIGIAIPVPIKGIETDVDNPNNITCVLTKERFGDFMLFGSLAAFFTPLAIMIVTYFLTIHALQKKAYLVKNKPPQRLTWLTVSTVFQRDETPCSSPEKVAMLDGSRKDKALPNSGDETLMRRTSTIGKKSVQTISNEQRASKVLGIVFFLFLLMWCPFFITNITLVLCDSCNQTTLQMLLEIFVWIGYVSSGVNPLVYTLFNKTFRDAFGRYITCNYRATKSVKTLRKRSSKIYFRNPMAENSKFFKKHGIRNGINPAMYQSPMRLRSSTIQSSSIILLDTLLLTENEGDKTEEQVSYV
In experiment [9] the target is D(2) dopamine receptor (Homo sapiens) (UniProt P14416). In words: Inhibitory activity against human D2 receptor at 10 uM concentration.
The target in experiment [10] is T5, 5-hydroxytryptamine receptor 2B. In words: Inhibitory activity against human 5-HT2B receptor.
In experiment [11] the target is T2, Alpha-1A adrenergic receptor (Homo sapiens). In words: Inhibitory activity against human adrenergic alpha-1A receptor at 10 uM concentration.
For experiment [12], the target named is D(2) dopamine receptor (Homo sapiens) (UniProt P14416). In words: Inhibitory activity against human D2 receptor at 10 uM.
In experiment [13] the target is T2, Alpha-1A adrenergic receptor (Homo sapiens). In words: Inhibitory activity against human adrenergic alpha-1A receptor at 10 uM.
Experiment [14] deals with T3, 5-hydroxytryptamine receptor 2A. In words: Inhibitory activity against human 5-HT2A receptor.
In experiment [15] the target is T6, 5-hydroxytryptamine receptor 2C (Homo sapiens, UniProt P28335).
T6 sequence (P28335 whole entry): T4 sequence (whole entry)
The experiment can be described thus: Inhibitory activity against human 5-HT2C receptor.

In experiment [16] the target is T1, Melanin-concentrating hormone receptor 1. The experiment is described as §1. Particulars: concentration not given here.

T3 sequence (P28223 whole entry): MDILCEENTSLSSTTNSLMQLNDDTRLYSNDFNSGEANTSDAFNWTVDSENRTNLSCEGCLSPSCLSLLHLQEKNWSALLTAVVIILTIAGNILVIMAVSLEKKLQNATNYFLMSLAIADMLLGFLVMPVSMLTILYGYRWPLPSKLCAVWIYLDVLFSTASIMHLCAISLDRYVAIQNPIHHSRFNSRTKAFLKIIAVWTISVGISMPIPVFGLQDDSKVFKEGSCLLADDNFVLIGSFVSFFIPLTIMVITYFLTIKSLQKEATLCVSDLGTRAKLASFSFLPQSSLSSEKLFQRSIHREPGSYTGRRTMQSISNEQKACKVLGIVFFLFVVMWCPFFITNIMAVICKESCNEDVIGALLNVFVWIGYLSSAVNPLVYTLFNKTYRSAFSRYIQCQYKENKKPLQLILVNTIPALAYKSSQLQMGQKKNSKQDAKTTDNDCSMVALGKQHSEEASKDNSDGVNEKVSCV

The IC50 is the concentration needed to halve the response being measured. A low value points to greater potency in that assay. On to `Cc1cc(N(C)C)nc2ccc(NC(=O)COc3ccc(C(F)(F)F)cc3)cc12`, for which the IC50 in experiment [1] was 174 nM.

`Cc1cc(N(C)CCN(C)C)nc2ccc(NC(=O)COc3ccc(C(F)(F)F)cc3)cc12` registered an IC50 in [1] of 22 nM.

`COc1ccc(OCC(=O)Nc2ccc3nc(N4CCN(C)CC4)cc(C)c3c2)cc1` showed an IC50 in [1] of 152 nM.

For orientation: inhibition means the percentage by which the read-out fell short of the control. In turn, `Cc1cc(N2CCN(C)CC2)nc2ccc(NC(=O)CSCc3ccc(Cl)cc3)cc12` had an inhibition in [2] of 38%.

In turn, `Cc1cc(N2CCCCC2)nc2ccc(NC(=O)COc3ccc(C(F)(F)F)cc3)cc12` returned an IC50 in experiment [1] of 226 nM.

As to `Cc1ccccc1OCC(=O)Nc1ccc2nc(N3CCN(C)CC3)cc(C)c2c1`, in experiment [1], it took 1050 nM to reach half-maximal inhibition (IC50).

With `Cc1cc(N2CCN(C)CC2)nc2ccc(NC(=O)COCc3ccc(Cl)cc3)cc12`, the inhibition in experiment [2] is 19%.

As for `Cc1cc(N(C)Cc2ccccc2)nc2ccc(NC(=O)COc3ccc(C(F)(F)F)cc3)cc12`, in experiment [2], the inhibition is 40%.

Consider `Cc1cc(N2CCN(C)CC2)nc2ccc(NC(=O)COc3ccccc3)cc12`, for which, in [2], the inhibition turned out to be 2%.

`Cc1cc(N2CCOCC2)nc2ccc(NC(=O)COc3ccc(C(F)(F)F)cc3)cc12`: the inhibition was 5% in experiment [3]; 27% in experiment [4]; 27% in experiment [5]; 43% in experiment [7]; 19% in experiment [8]. The values for the IC50 in [1] and in experiment [6] were 91 nM and 124 nM, respectively. In addition, the Ratio in the experiment listed under Homo sapiens was above 11.

The molecule `Cc1cc(N2CCN(C)CC2)nc2ccc(NC(=O)COc3ccc(F)cc3)cc12` registered an IC50 in experiment [1] of 1680 nM.

Consider `Cc1cc(N2CCN(C)CC2)nc2ccc(NC(=O)COc3ccc(C(F)(F)F)cc3)cc12`, for which the IC50 in experiment [1] is 14 nM; in experiment [6], 63 nM; in [10], 442 nM. In addition, the inhibition in experiment [4] came to 27%; in experiment [9], 41%; in experiment [5] it was 39%; in [11], 85%. Also, the Ratio in the experiment listed under Homo sapiens was 32.

`Cc1cc(N2CCN(C)CC2)nc2ccc(NC(=O)COc3ccccc3Cl)cc12` gave an IC50 in experiment [1] of 470 nM.

Turning to `Cc1cc(N2CCN(C)CC2)nc2ccc(NC(=O)COc3ccc(OC(F)(F)F)cc3)cc12`, 36 nM corresponded to half-maximal inhibition in experiment [1] (IC50).

The molecule `Cc1cc(N2CCN(C)CC2)nc2ccc(NC(=O)CCc3ccc(Cl)cc3)cc12` had an IC50 in experiment [1] of 300 nM.

Regarding `Cc1cc(NC(C)C)nc2ccc(NC(=O)COc3ccc(C(F)(F)F)cc3)cc12`, the inhibition in experiment [3] was found to be 24%; in experiment [4], 18%; in experiment [5], 18%; in [7], 2%. The half-maximal inhibitory concentration (IC50) amounted to 11 nM in [1] and 400 nM in [10]. For the same molecule, in the experiment filed under Homo sapiens, the Ratio stood at 36.

Take `Cc1cc(N2CCN(C)CC2)nc2ccc(NC(=O)COc3ccc(Cl)cc3)cc12`: the IC50 in [1] was 55 nM; in [10] it was 349 nM; in experiment [14], 2180 nM; in [15], 970 nM. In addition, the inhibition was 35% in [12] and 84% in experiment [13].

For the molecule `Cc1cc(N2CCCC2)nc2ccc(NC(=O)COc3ccc(C(F)(F)F)cc3)cc12`, the inhibition in [3] came to 10%; in experiment [4] it was 11%; in experiment [5], 7%; in experiment [7] it was 7%. The IC50 in experiment [1] was found to be 15 nM; in [6], 10 nM. The Ratio in the experiment filed under Homo sapiens is above 200.

As for `COc1ccccc1OCC(=O)Nc1ccc2nc(N3CCN(C)CC3)cc(C)c2c1`, in experiment [16], the inhibition amounted to 0%.

In [1], `Cc1ccc(OCC(=O)Nc2ccc3nc(N4CCN(C)CC4)cc(C)c3c2)cc1` displayed an IC50 of 80 nM.

Consider `COc1cccc(OCC(=O)Nc2ccc3nc(N4CCN(C)CC4)cc(C)c3c2)c1`, for which the inhibition in experiment [2] was found to be 9%.

In experiment [16], `Cc1cc(N2CCN(C)CC2)nc2ccc(NC(=O)COc3cccc(Cl)c3)cc12` returned an inhibition of 19%.

Take `Cc1cc(N2CCN(C)CC2)nc2ccc(NC(=O)COc3ccc(C#N)cc3)cc12`: in experiment [1], the IC50 worked out at 370 nM.

On to `Cc1cc(NC2CCCC2)nc2ccc(NC(=O)COc3ccc(C(F)(F)F)cc3)cc12`, for which the IC50 in experiment [1] was found to be 38 nM.
